Biological target: T1, horseradish peroxidase (HRP) (Armoracia rusticana, UniProt P00433)
T1 construct: gene PRXC1A
T1 sequence (P00433 31-338): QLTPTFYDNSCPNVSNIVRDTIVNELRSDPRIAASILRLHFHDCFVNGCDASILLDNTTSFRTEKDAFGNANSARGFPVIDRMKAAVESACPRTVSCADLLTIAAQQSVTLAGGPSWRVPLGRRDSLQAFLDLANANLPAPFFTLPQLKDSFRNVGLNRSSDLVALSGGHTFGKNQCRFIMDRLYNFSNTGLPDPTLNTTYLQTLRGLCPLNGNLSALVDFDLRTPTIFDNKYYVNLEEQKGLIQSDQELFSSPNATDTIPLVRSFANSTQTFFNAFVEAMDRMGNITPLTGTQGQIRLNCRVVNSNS
Test: absorbance, plate reader, oxidation by H2O2
Format: biochemical
Settings: H2O2 co-substrate

Row | SMILES | absorbance, plate reader, oxidation by H2O2 (enzyme in silk fibroin nanospheres) | absorbance, plate reader, oxidation by H2O2 (generated by GOx from glucose)
1 | Cc1cc(-c2cc(C)c(N)c(C)c2)cc(C)c1N [3,3′,5,5′‐tetramethylbenzidine] | activity recovery of enzyme HRP in SENs was monitored by the oxidation of TMB | –
2 | COc1cc(-c2ccc(N)c(OC)c2)ccc1N [o‐dianisidine] | – | the ODS or TMB gets oxidized by H2O2 under the catalysis of HRP

Source: article PMC11935913, “Silk Nanococoons: Bio‐Nanoreactors for Enzymatic Catalytic Reactions and Applications to Alcohol Intoxication” (Small Science, 2021)
